Assay results as given in patent publication US20230011869A1 (Hoffmann-La Roche Inc., priority 2018, published 2023).
Where a name gives a salt, the structure may show the parent alone.

system: Acinetobacter baumannii ATCC17978; experiment: Antimicrobial susceptibility testing: 90% growth inhibitory concentration (IC90) determination, Iso-Sensitest broth; format: cell-based; details: 90% growth inhibitory concentration, Acinetobacter baumannii ATCC17978, Iso-Sensitest broth, OD 600 nm over 16 h; read-out: ATCC17978 IC90
Protocol: Antimicrobial Susceptibility Testing:
90% Growth Inhibitory Concentration (IC90) Determination
The in vitro antimicrobial activity of the compounds was determined according to the following procedure:
The assay used a 10-points Iso-Sensitest broth medium to measure quantitatively the in vitro activity of the compounds against Acinetobacter baumannii ATCC17978 and Acinetobacter baumannii ATCC17961.
Microtiter plates were incubated at 35±2° C.
Bacterial cell growth was determined with the measurement of optical density at λ=600 nm each 20 minutes over a time course of 16 h. Growth inhibition was calculated during the logarithmic growth of the bacterial cells with determination of the concentration inhibiting 50% (IC50) and 90% (IC90) of the growth.

`Cc1cc(Nc2nccn3c(-c4ccc(OC(F)F)cc4)cnc23)ccc1C(=O)N1CCC(C(N)=O)CC1` [Example 4, 1-(4-((3-(4-(difluoromethoxy)phenyl)imidazo[1,2-a]pyrazin-8-yl)amino)-2-methylbenzoyl)piperidine-4-carboxamide] and `CNC(=O)C1CCN(C(=O)c2ccc(Nc3nccn4c(-c5ccc(OC(F)F)cc5)cnc34)cc2C)CC1` [Example 15, 1-(4-((3-(4-(difluoromethoxy)phenyl)imidazo[1,2-a]pyrazin-8-yl)amino)-2-methylbenzoyl)-N-methylpiperidine-4-carboxamide] are within 1.5-fold of each other in IC90: 120 nM for the first, 150 nM for the second.

First: COc1ccc(-c2cnc3c(Nc4ccc(C(=O)N5CCN(C)CC5)c(C)c4)nccn23)cc1 [Example 5, (4-((3-(4-methoxyphenyl)imidazo[1,2-a]pyrazin-8-yl)amino)-2-methylphenyl)(4-methylpiperazin-1-yl)methanone]
Second: COc1ccc(-c2cnc3c(Nc4ccc(C(=O)N5CCOCC5)c(C)c4)nccn23)cc1 [Example 6, (4-((3-(4-methoxyphenyl)imidazo[1,2-a]pyrazin-8-yl)amino)-2-methylphenyl)(morpholine)methanone]
The IC90 of the first is 3.4-fold higher: 1200 nM for the first, 350 nM for the second.

Going from `COc1ccc(-c2cnc3c(Nc4ccc(C(=O)N5CCC(O)CC5)c(C)c4)nccn23)cc1` [Example 7, (4-hydroxypiperidin-1-yl)(4-((3-(4-methoxyphenyl)imidazo[1,2-a]pyrazin-8-yl)amino)-2-methylphenyl)methanone] to `Cc1cc(Nc2nccn3c(-c4ccc(OC(F)F)cc4)cnc23)ccc1C(=O)N1CCC(CN)CC1` [Example 18, (4-(aminomethyl)piperidin-1-yl)(4-((3-(4-(difluoromethoxy)phenyl)imidazo[1,2-a]pyrazin-8-yl)amino)-2-methylphenyl)methanone hydrochloride], the IC90 falls from 660 nM to 150 nM (4.4-fold).

`Cc1cc(Nc2nccn3c(-c4ccc(OC(F)F)cc4)cnc23)ccc1C(=O)N1CCC(n2cncn2)CC1` [Example 8, (4-(1H-1,2,4-triazol-1-yl)piperidin-1-yl)(4-((3-(4-(difluoromethoxy)phenyl)imidazo[1,2-a]pyrazin-8-yl)amino)-2-methylphenyl)methanone] and `Cc1cc(Nc2nccn3c(-c4ccc(OC(F)F)cc4)cnc23)ccc1C(=O)N1CCC(c2nncn2C)CC1` [Example 13, (4-((3-(4-(difluoromethoxy)phenyl)imidazo[1,2-a]pyrazin-8-yl)amino)-2-methylphenyl)(4-(4-methyl-4H-1,2,4-triazol-3-yl)piperidin-1-yl)methanone] are the same in IC90: 130 nM for the first, 130 nM for the second.

First: Cc1cc(Nc2nccn3c(-c4ccc(OC(F)F)cc4)cnc23)ccc1C(=O)N1CCC(N2CCNC2=O)CC1 [Example 9, 1-(1-(4-((3-(4-(difluoromethoxy)phenyl)imidazo[1,2-a]pyrazin-8-yl)amino)-2-methylbenzoyl)piperidin-4-yl)imidazolidin-2-one]
Second: Cc1cc(Nc2nccn3c(-c4ccc(OC(F)F)cc4)cnc23)ccc1C(=O)N1CCC(C2CNC2)CC1 [Example 20, (4-(azetidin-3-yl)piperidin-1-yl)(4-((3-(4-(difluoromethoxy)phenyl)imidazo[1,2-a]pyrazin-8-yl)amino)-2-methylphenyl)methanone hydrochloride]
The IC90 of the first is 2.6-fold higher: 410 nM for the first, 160 nM for the second.

First: Cc1cc(Nc2nccn3c(-c4ccc(OC(F)F)cc4)cnc23)ccc1C(=O)N1CCCC(C(N)=O)C1 (centres unmarked) [Example 10, 1-(4-((3-(4-(difluoromethoxy)phenyl)imidazo[1,2-a]pyrazin-8-yl)amino)-2-methylbenzoyl)piperidine-3-carboxamide]
Second: CCOC(=O)NC1CCN(C(=O)c2ccc(Nc3nccn4c(-c5ccc(OC(F)F)cc5)cnc34)cc2C)CC1 [Example 11, ethyl (1-(4-((3-(4-(difluoromethoxy)phenyl)imidazo[1,2-a]pyrazin-8-yl)amino)-2-methylbenzoyl)piperidin-4-yl)carbamate]
The IC90 of the first is 2.8-fold higher: 1600 nM for the first, 580 nM for the second.

`Cc1cc(Nc2nccn3c(-c4ccc(OC(F)F)cc4)cnc23)ccc1C(=O)N1CCC(Oc2ncccn2)CC1` [Example 12] and `Cc1cc(Nc2nccn3c(-c4ccc(OC(F)F)cc4)cnc23)ccc1C(=O)N1CCC(Cn2cccn2)CC1` [Example 16, (4-((1H-pyrazol-1-yl)methyl)piperidin-1-yl)(4-((3-(4-(difluoromethoxy)phenyl)imidazo[1,2-a]pyrazin-8-yl)amino)-2-methylphenyl)methanone] are within 1.5-fold of each other in IC90: 720 nM for the first, 930 nM for the second.

Going from `COc1ccc(-c2cnc3c(Nc4ccc(C(=O)N5CCC(C(=O)N6CCNCC6)CC5)c(C)c4)nccn23)cc1F` [Example 14, (1-(4-((3-(3-fluoro-4-methoxyphenyl)imidazo[1,2-a]pyrazin-8-yl)amino)-2-methylbenzoyl)piperidin-4-yl)(piperazin-1-yl)methanone hydrochloride] to `COc1ccc(-c2cnc3c(Nc4ccc(C(=O)N5CCN(C)CC5)c(C)c4)nccn23)cc1Cl` [Example 22, (4-((3-(3-chloro-4-methoxyphenyl)imidazo[1,2-a]pyrazin-8-yl)amino)-2-methylphenyl)(4-methylpiperazin-1-yl)methanone], the IC90 rises from 140 nM to 1300 nM (9.3-fold).

Compared with `Cc1cc(Nc2nccn3c(-c4ccc(OC(F)F)cc4)cnc23)ccc1C(=O)N1CCC2(CC1)CNCCO2` [Example 17, (4-((3-(4-(difluoromethoxy)phenyl)imidazo[1,2-a]pyrazin-8-yl)amino)-2-methylphenyl)(1-oxa-4,9-diazaspiro[5.5]undecan-9-yl)methanone], `Cc1cc(Nc2nccn3c(-c4ccc(OC(F)F)cc4)cnc23)ccc1C(=O)N1CCN(CCN)CC1` [Example 24, [4-(2-aminoethyl)piperazin-1-yl]-[4-[[3-[4-(difluoromethoxy)phenyl]imidazo[1,2-a]pyrazin-8-yl]amino]-2-methyl-phenyl]methanone] is 1.9-fold lower in IC90: 1300 nM for the first, 670 nM for the second.

Going from `COc1ccc(-c2cnc3c(Nc4ccc(C(=O)N5CCOCC5)c(C)c4)nccn23)cc1Cl` [Example 21, (4-((3-(3-chloro-4-methoxyphenyl)imidazo[1,2-a]pyrazin-8-yl)amino)-2-methylphenyl)(morpholino)methanone] to `COc1ccc(-c2cnc3c(Nc4ccc(C(=O)N5CCOC(CN(C)C)C5)c(C)c4)nccn23)cc1F` (centres unmarked) [Example 23, [2-[(dimethylamino)methyl]morpholin-4-yl]-[4-[[3-(3-fluoro-4-methoxy-phenyl)imidazo[1,2-a]pyrazin-8-yl]amino]-2-methyl-phenyl]methanone;2,2,2-trifluoroacetic acid], the IC90 rises from 240 nM to 1100 nM (4.6-fold).

`CN(C)CCN1CCN(C(=O)c2ccc(Nc3nccn4c(-c5ccc(OCC#N)c(F)c5Cl)cnc34)cc2Cl)CC1` [Example 25, 2-[3-chloro-4-[8-[3-chloro-4-[4-[2-(dimethylamino)ethyl]piperazine-1-carbonyl]anilino]imidazo[1,2-a]pyrazin-3-yl]-2-fluoro-phenoxy]acetontrile] and `CCc1cc(Nc2nccn3c(-c4ccc(OCC#N)c(F)c4F)cnc23)ccc1C(=O)N1CCN(CCN(C)C)CC1` [Example 30, 2-(4-(8-((4-(4-(2-(dimethylamino)ethyl)piperazine-1-carbonyl)-3-ethylphenyl)amino)imidazo[1,2-a]pyrazin-3-yl)-2,3-difluorophenoxy)acetonitrile] are within 1.5-fold of each other in IC90: 140 nM for the first, 130 nM for the second.

`COc1ccc(-c2cnc3c(Nc4ccc(C(=O)N5CCN(CCN(C)C)CC5)c(C)c4)nccn23)c(F)c1F` [Example 27] and `COc1ccc(-c2cnc3c(Nc4ccc(C(=O)N5CCC(CN(C)C)CC5)c(C)c4)nccn23)c(F)c1F` [Example 29, (4-((3-(2,3-difluoro-4-methoxyphenyl)imidazo[1,2-a]pyrazin-8-yl)amino)-2-methylphenyl)(4-((dimethylamino)methyl)piperidin-1-yl)methanone] are within 1.5-fold of each other in IC90: 160 nM for the first, 120 nM for the second.

`COc1ccc(-c2cnc3c(Nc4ccc(C(=O)N5CCC(CN)CC5)c(C)c4)nccn23)c(F)c1F` [Example 28, (4-(aminomethyl)piperidin-1-yl)(4-((3-(2,3-difluoro-4-methoxyphenyl)imidazo[1,2-a]pyrazin-8-yl)amino)-2-methylphenyl)methanone] and `Cc1cc(Nc2nccn3c(-c4ccc(OCC#N)c(F)c4F)cnc23)ccc1C(=O)N1CCC(CN)CC1` [Example 31, 2-[4-[8-[4-[4-(aminomethyl)piperidine-1-carbonyl]-3-methyl-anilino]imidazo[1,2-a]pyrazin-3-yl]-2,3-difluoro-phenoxy]acetonitrile;2,2,2-trifluoroacetic acid] are within 1.5-fold of each other in IC90: 170 nM for the first, 120 nM for the second.

`Cc1cc(Nc2nccn3c(-c4cc(F)c(OCC#N)cc4Cl)cnc23)ccc1C(=O)N1CCC(C(=O)N2CCNC(CO)C2)CC1` (centres unmarked) [Example 32, 2-[5-chloro-2-fluoro-4-[8-[4-[4-[3-(hydroxymethyl)piperazine-1-carbonyl]piperidine-1-carbonyl]-3-methyl-anilino]imidazo[1,2-a]pyrazin-3-yl]phenoxy]acetonitrile;2,2,2-trifluoroacetic acid] and `Cc1cc(Nc2nccn3c(-c4ccc(OC(F)F)cc4)cnc23)ccc1C(=O)N1CCC(C(=O)N2C[C@H](CO)[C@@H](O)[C@H](O)C2)CC1` [Example 33, (1-(4-((3-(4-(difluoromethoxy)phenyl)imidazo[1,2-a]pyrazin-8-yl)amino)-2-methylbenzoyl)piperidin-4-yl)((3R,4R,5R)-3,4-dihydroxy-5-(hydroxymethyl)piperidin-1-yl)methanone] are within 1.5-fold of each other in IC90: 210 nM for the first, 230 nM for the second.

same assay, conditions: Acinetobacter baumannii, ATCC17978, 16 h, read-out: ATCC17978 IC90, 90% growth inhibitory concentration, Acinetobacter baumannii ATCC17978, Iso-Sensitest broth, OD 600 nm over 16 h

`COc1cc(Cl)c(-c2cnc3c(Nc4ccc(C(=O)N5CCC(CN)CC5)c(C)c4)nccn23)cc1F` [Example 26, [4-(aminomethyl)-1-piperidyl]-[4-[[3-(2-chloro-5-fluoro-4-methoxy-phenyl)imidazo[1,2-a]pyrazin-8-yl]amino]-2-methyl-phenyl]methanone hydrochloride] showed an IC90 of 370 nM.
